# Reference: patent publication US9328374B2, “Selective culture medium and method for detecting carbapenem-resistant bacteria in a test sample” (Institut National de la Sante et de la Recherche Medicale …, priority 2011, dated 2016)
# Like-named read-outs stand apart in the source and are kept apart here.
# Experiments:
# Assay in all cases: MIC of imipenem, ertapenem and meropenem
# P. mirabilis = type: cell-based
# C. koseri = type: cell-based
# P. rettgeri = type: cell-based, Providencia rettgeri
# S. typhimurium = type: cell-based
# E. aerogenes = type: cell-based, Enterobacter aerogenes; conditions: Klebsiella aerogenes, read-out: MIC
# E. cloacae = type: cell-based, Enterobacter cloacae; conditions: Enterobacter cloacae, read-out: MIC
# P. stuartii = type: cell-based, Providencia stuartii
smiles,measurement,setting,value
"C[C@@H](O)[C@H]1C(=O)N2C(C(=O)O)=C(S[C@@H]3CN[C@H](C(=O)Nc4cccc(C(=O)O)c4)C3)[C@H](C)[C@H]12 [ETP, ertapenem]",MIC,P. mirabilis; P. mirabilis PMA (ACC-1),0.094 µg/mL
same,MIC,"P. mirabilis; Proteus mirabilis, P. mirabilis 1031 (CTX-M-14 + TEM-1 + SHV-11), read-out: MIC",0.047 µg/mL
same,MIC,"P. mirabilis; Proteus mirabilis, P. mirabilis 1031, CTX-M-14 + TEM-1 + SHV-11, non-carbapenemase producer, read-out: MIC",0.047 µg/mL
same,MIC,"P. mirabilis; Proteus mirabilis, P. mirabilis PMA (ACC-1), read-out: MIC",0.12 µg/mL
same,MIC,"P. mirabilis; Proteus mirabilis, P. mirabilis PMA, ACC-1, non-carbapenemase producer, read-out: MIC",0.094 µg/mL
same,MIC,C. koseri; C. koseri VER (OXA-48),2 µg/mL
same,MIC,"C. koseri; C. koseri VER, OXA-48",2 µg/mL
same,MIC,"C. koseri; Citrobacter koseri, C. koseri ROU, OXA-48, read-out: MIC",2 µg/mL
same,MIC,"C. koseri; strain C. koseri VER, OXA-48",2 µg/mL
same,MIC,"P. rettgeri; P. rettgeri RAP, OXA-181 + OXA-1",1 µg/mL
same,MIC,"P. rettgeri; Providencia rettgeri, P. rettgeri RAP (OXA-181 + OXA-1), read-out: MIC",1 µg/mL
same,MIC,"P. rettgeri; strain P. rettgeri RAP, OXA-181 + OXA-1",1 µg/mL
same,MIC,S. typhimurium; S. typhimurium 1081 (CTX-M-1),0.19 µg/mL
same,MIC,"S. typhimurium; Salmonella enterica, S. typhimurium 1081, CTX-M-1, non-carbapenemase producer, read-out: MIC",0.19 µg/mL
same,MIC,"S. typhimurium; strain S. typhimurium 1081, CTX-M-1, non-carbapenemase producer",0.19 µg/mL
same,MIC,"E. aerogenes; E. aerogenes 1009, TEM-24, non-carbapenemase producer",0.12 µg/mL
same,MIC,E. aerogenes; E. aerogenes 1085 (TEM-24),0.19 µg/mL
same,MIC,"E. aerogenes; E. aerogenes 1085, TEM-24, non-carbapenemase producer",0.19 µg/mL
same,MIC,"E. aerogenes; strain E. aerogenes 1085, TEM-24, non-carbapenemase producer",0.19 µg/mL
same,MIC,"E. cloacae; E. cloacae 501, OXA-48 + TEM-1 + CTX-M-15",16 µg/mL
same,MIC,"E. cloacae; E. cloacae 1012, TEM-1 + SHV-12, non-carbapenemase producer",0.016 µg/mL
same,MIC,"E. cloacae; E. cloacae 1027, TEM-1 + CTX-M-15, non-carbapenemase producer",0.016 µg/mL
same,MIC,E. cloacae; E. cloacae 5434 (wild type),0.016 µg/mL
same,MIC,"E. cloacae; E. cloacae 5434, (wild type), non-carbapenemase producer",0.016 µg/mL
same,MIC,"E. cloacae; E. cloacae 7725, (wild type), non-carbapenemase producer",0.008 µg/mL
same,MIC,"E. cloacae; E. cloacae 7746, (wild type), non-carbapenemase producer",0.064 µg/mL
same,MIC,E. cloacae; E. cloacae 10111 (TEM-1 + CTX-M-15),0.75 µg/mL
same,MIC,"E. cloacae; E. cloacae 1008029, VIM-1+ CTX-M-3",> 32 µg/mL
same,MIC,"E. cloacae; E. cloacae 1008079, IMP-1",> 32 µg/mL
same,MIC,"E. cloacae; E. cloacae 1008187, IMP-1 + CTX-M-15",> 32 µg/mL
same,MIC,E. cloacae; E. cloacae (KPC-2),6 µg/mL
same,MIC,"E. cloacae; E. cloacae BEU, OXA-48 + TEM-1 + CTX-M-15 + SHV-12",8 µg/mL
same,MIC,"E. cloacae; E. cloacae CFVL, KPC-2 + TEM-3",2 µg/mL
same,MIC,E. cloacae; E. cloacae CLO (CTX-M-15),0.12 µg/mL
same,MIC,"E. cloacae; E. cloacae CLO, CTX-M-15, non-carbapenemase producer",0.12 µg/mL
same,MIC,E. cloacae; E. cloacae CVB (VEB-1),0.12 µg/mL
same,MIC,"E. cloacae; E. cloacae CVB, VEB-1, non-carbapenemase producer",0.12 µg/mL
same,MIC,"E. cloacae; E. cloacae HMG, KPC-2 + TEM-1",> 32 µg/mL
same,MIC,E. cloacae; E. cloacae HPTU (KPC-2 + TEM-1 + SHV-11),4 µg/mL
same,MIC,"E. cloacae; E. cloacae HPTU, KPC-2 + TEM-1 + SHV-11",4 µg/mL
same,MIC,E. cloacae; E. cloacae IR38 (NDM-1 + CTX-M-15),16 µg/mL
same,MIC,"E. cloacae; E. cloacae IR38, NDM-1 + CTX-M-15",16 µg/mL
same,MIC,"E. cloacae; E. cloacae KAR, VIM-1+ SHV-70",0.38 µg/mL
same,MIC,E. cloacae; E. cloacae TAW (IMP-8 + SHV-12),0.5 µg/mL
same,MIC,"E. cloacae; E. cloacae TAW, IMP-8 + SHV-12",0.5 µg/mL
same,MIC,E. cloacae; E. cloacae TUR (OXA-48 + SHV-5),0.5 µg/mL
same,MIC,"E. cloacae; E. cloacae TUR, OXA-48 + SHV-5",0.5 µg/mL
same,MIC,"E. cloacae; E. cloacae TWA, IMP-8",1 µg/mL
same,MIC,"E. cloacae; strain E. cloacae 10111, TEM-1 + CTX-M-15, non-carbapenemase producer",0.75 µg/mL
same,MIC,"E. cloacae; strain E. cloacae CLO, CTX-M-15, non-carbapenemase producer",0.12 µg/mL
same,MIC,"E. cloacae; strain E. cloacae CVB, VEB-1, non-carbapenemase producer",0.12 µg/mL
same,MIC,"E. cloacae; strain E. cloacae HPTU, KPC-2 + TEM-1 + SHV-11",4 µg/mL
same,MIC,"E. cloacae; strain E. cloacae TAW, IMP-8 + SHV-12",0.5 µg/mL
same,MIC,"E. cloacae; strain E. cloacae TUR, OXA-48 + SHV-5",0.5 µg/mL
same,MIC,P. stuartii; P. stuartii PS1 (NDM-1 + CMY-6 + OXA-1),0.38 µg/mL
same,MIC,"P. stuartii; P. stuartii PS1, NDM-1 + CMY-6 + OXA-1",0.38 µg/mL
same,MIC,"P. stuartii; Providencia stuartii, P. stuartii NDM (NDM-1 + OXA-1 + CMY-6), read-out: MIC",0.38 µg/mL
same,MIC,"P. stuartii; strain P. stuartii PS1, NDM-1 + CMY-6 + OXA-1",0.38 µg/mL
